From patent US20190151312A1, “HEPARAN SULFATE BIOSYNTHESIS INHIBITORS FOR THE TREATMENT OF DISEASES” (BioMarin Pharmaceutical Inc., priority 2014, published 2019)
pIC50: −log10 of the molar value. Like-named read-outs stand apart in the source and are kept apart here.

Test system: GM01896 cells (MPS II dermal fibroblasts)
Test: Assay 1: MPS cellular assay, MPS II (heparan sulfate disaccharide biomarkers by LC-MS)
Type: cell-based, human
Settings: Assay 1 for MPS II, heparan sulfate disaccharide biomarkers (I2a4, I2a6, I2S0 and/or I2S6), read-out: IC50 Range
Summary of the method: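 Heparan sulfate disaccharide biomarkers quantified by LC-MS after heparinase I/II/III digestion and isotopic aniline labelling, using GM01896 MPS II fibroblasts exposed to compound (at or below 30 μM, 4-21 days). Values given as IC50 by curve fitting; cell viability checked with alamar blue or ATP.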

Clc1ccc(Nc2cc(-c3ccc4ncn(CC5CC5)c4c3)nc(N3CCOCC3)n2)cc1 [(4-chlorophenyl){6-[1-(cyclopropylmethyl)benzimidazol-6-yl]-2-morpholin-4-ylpyrimidin-4-yl}amine]
pIC50 (Homo sapiens, Fibroblast): 6.00 to 6.30

Cn1nc(CCN2CCOCC2)c2ccc(-c3cc(Nc4ccc5cc[nH]c5c4)nc(N4CCOCC4)n3)cc21 [indol-6-yl{6-[1-methyl-3-(2-morpholin-4-ylethyl)(1H-indazol-6-yl)]-2-morpholin-4-ylpyrimidin-4-yl}amine]
pIC50 (Homo sapiens, Fibroblast): 6.00 to 6.30

Cc1nc2ccc(-c3cc(Nc4ccc(Cl)cc4)nc(N4CCOCC4)n3)cc2n1C1CC1 [(4-chlorophenyl)[6-(1-cyclopropyl-2-methylbenzimidazol-6-yl)-2-morpholin-4-ylpyrimidin-4-yl]amine]
pIC50 (Homo sapiens, Fibroblast): 6.00 to 6.30

CNC(=O)c1ccc(Nc2cc(-c3ccc4cnn(CCOC)c4c3)nc(N3CCOCC3)n2)cc1 [[4-({6-[1-(2-methoxyethyl)(1H-indazol-6-yl)]-2-morpholin-4-ylpyrimidin-4-yl}amino)phenyl]-N-methylcarboxamide]
pIC50 (Homo sapiens, Fibroblast): > 6.30

Cc1nn(C)c2cc(-c3cc(Nc4ccc(-c5nnc(C(F)(F)F)[nH]5)cc4)nc(N4CCOCC4)n3)ccc12 [[6-(1,3-dimethyl(1H-indazol-6-yl))-2-morpholin-4-ylpyrimidin-4-yl]{4-[5-(trifluoromethyl)(4H-1,2,4-triazol-3-yl)]phenyl}amine]
pIC50 (Homo sapiens, Fibroblast): 5.30 to 6.00

Cn1nc(N2CCOCC2)c2ccc(-c3cc(Nc4ccc(Cl)cc4)nc(N4CCOCC4)n3)cc21 [(4-chlorophenyl)[6-(1-methyl-3-morpholin-4-yl(1H-indazol-6-yl))-2-morpholin-4-ylpyrimidin-4-yl]amine]
pIC50: 5.30 to 6.00

CNC(=O)c1ccc(Nc2cc(-c3ccc4cn[nH]c4c3)nc(N3CCOCC3)n2)cn1 [{5-[(6-(1H-indazol-6-yl)-2-morpholin-4-ylpyrimidin-4-yl)amino](2-pyridyl)}-N-methylcarboxamide]
pIC50 (Homo sapiens, Fibroblast): 6.00 to 6.30

CC(C)NC(=O)c1ccc(Nc2cc(-c3ccc4cnn(C)c4c3)nc(N3CCOCC3)n2)cc1 [(4-{[6-(1-methyl(1H-indazol-6-yl))-2-morpholin-4-ylpyrimidin-4-yl]amino}phenyl)-N-(methylethyl)carboxamide]
pIC50 (Homo sapiens, Fibroblast): 6.00 to 6.30

Cn1ncc2ccc(-c3cc(Nc4cccc(-c5ncco5)c4)nc(N4CCOCC4)n3)cc21 [[6-(1-methyl(1H-indazol-6-yl))-2-morpholin-4-ylpyrimidin-4-yl](3-(1,3-oxazol-2-yl)phenyl)amine]
pIC50 (Homo sapiens, Fibroblast): 5.30 to 6.00

Cn1ncc2ccc(-c3cc(Nc4ccc(-c5cnn[nH]5)cc4)nc(N4CCOCC4)n3)cc21 [(4-(1H-1,2,3-triazol-5-yl)phenyl)[6-(1-methyl(1H-indazol-6-yl))-2-morpholin-4-ylpyrimidin-4-yl]amine]
pIC50 (Homo sapiens, Fibroblast): 5.30 to 6.00

CNC(=O)c1ccc(Nc2cc(-c3ccc4cn(CCN(C)C)nc4c3)nc(N3CCOCC3)n2)cc1 [{4-[(6-{2-[2-(dimethylamino)ethyl](2H-indazol-6-yl)}-2-morpholin-4-ylpyrimidin-4-yl)amino]phenyl}-N-methylcarboxamide]
pIC50 (Homo sapiens, Fibroblast): > 6.30

Cc1nn(C)c2cc(-c3cc(Nc4ccc5[nH]ccc5c4)nc(N4CCOCC4)n3)ccc12 [[6-(1,3-dimethyl(1H-indazol-6-yl))-2-morpholin-4-ylpyrimidin-4-yl]indol-5-ylamine]
pIC50 (Homo sapiens, Fibroblast): 5.30 to 6.00

Cc1nnc(-c2ccc(Nc3cc(-c4ccc5c(CCN6CCOCC6)nn(C)c5c4)nc(N4CCOCC4)n3)cc2)[nH]1 [[4-(5-methyl(4H-1,2,4-triazol-3-yl))phenyl]{6-[1-methyl-3-(2-morpholin-4-ylethyl)(1H-indazol-6-yl)]-2-morpholin-4-ylpyrimidin-4-yl}amine]
pIC50 (Homo sapiens, Fibroblast): > 6.30

COc1cc(Nc2cc(-c3ccc4ncn(C)c4c3)nc(N3CCOCC3)n2)ccn1 [(2-methoxy(4-pyridyl))[6-(1-methylbenzimidazol-6-yl)-2-morpholin-4-ylpyrimidin-4-yl]amine]
pIC50 (Homo sapiens, Fibroblast): 6.00 to 6.30

Clc1ccc(Nc2cc(-c3ccc4cnn(CC5CC5)c4c3)nc(N3CCOCC3)n2)cc1 [(4-chlorophenyl){6-[1-(cyclopropylmethyl)(1H-indazol-6-yl)]-2-morpholin-4-ylpyrimidin-4-yl}amine]
pIC50 (Homo sapiens, Fibroblast): 5.30 to 6.00

CN(C)c1ccc(Nc2cc(-c3ccc4ncn(C)c4c3)nc(N3CCOCC3)n2)cc1 [dimethyl(4-{[6-(1-methylbenzimidazol-6-yl)-2-morpholin-4-ylpyrimidin-4-yl]amino}phenyl)amine]
pIC50 (Homo sapiens, Fibroblast): 5.30 to 6.00

Clc1ccc(Nc2cc(-c3ccc4ncn(CCCN5CCOCC5)c4c3)nc(N3CCOCC3)n2)cc1 [(4-chlorophenyl){2-morpholin-4-yl-6-[1-(3-morpholin-4-ylpropyl)benzimidazol-6-yl]pyrimidin-4-yl}amine]
pIC50 (Homo sapiens, Fibroblast): 6.00 to 6.30

Cn1nc(CCN2CCOCC2)c2ccc(-c3cc(Nc4ccc(Br)cc4)nc(N4CCOCC4)n3)cc21 [(4-bromophenyl){6-[1-methyl-3-(2-morpholin-4-ylethyl)(1H-indazol-6-yl)]-2-morpholin-4-ylpyrimidin-4-yl}amine]
pIC50 (Homo sapiens, Fibroblast): 6.00 to 6.30

Cc1nn(C)c2cc(-c3cc(Nc4ccc(C5=NCCO5)cc4)nc(N4CCOCC4)n3)ccc12 [[6-(1,3-dimethyl(1H-indazol-6-yl))-2-morpholin-4-ylpyrimidin-4-yl](4-(1,3-oxazolin-2-yl)phenyl)amine]
pIC50 (Homo sapiens, Fibroblast): 5.30 to 6.00

Cc1nc2ccc(-c3cc(Nc4ccc(Cl)cc4)nc(N4CCOCC4)n3)cc2n1CCCN1CCOCC1 [(4-chlorophenyl){6-[2-methyl-1-(3-morpholin-4-ylpropyl)benzimidazol-6-yl]-2-morpholin-4-ylpyrimidin-4-yl}amine]
pIC50 (Homo sapiens, Fibroblast): 5.30 to 6.00

Cn1c(CN2CCCC2)nc2ccc(-c3cc(Nc4ccc(Cl)cc4)nc(N4CCOCC4)n3)cc21 [(4-chlorophenyl){6-[1-methyl-2-(pyrrolidinylmethyl)benzimidazol-6-yl]-2-morpholin-4-ylpyrimidin-4-yl}amine]
pIC50 (Homo sapiens, Fibroblast): 5.30 to 6.00

CN(C)CCCn1cnc2ccc(-c3cc(Nc4ccc(Cl)cc4)nc(N4CCOCC4)n3)cc21 [[3-(6-{6-[(4-chlorophenyl)amino]-2-morpholin-4-ylpyrimidin-4-yl}benzimidazolyl)propyl]dimethylamine]
pIC50: 6.00 to 6.30

CC(=O)c1ccc(Nc2cc(-c3ccc4cnn(C)c4c3)nc(N3CCOCC3)n2)cc1 [1-acetyl-4-{[6-(1-methyl(1H-indazol-6-yl))-2-morpholin-4-ylpyrimidin-4-yl]amino}benzene]
pIC50 (Homo sapiens, Fibroblast): 6.00 to 6.30

Cn1nc(CCN2CCOCC2)c2cc(F)c(-c3cc(Nc4ccc(Cl)cc4)nc(N4CCOCC4)n3)cc21 [(4-chlorophenyl){6-[5-fluoro-1-methyl-3-(2-morpholin-4-ylethyl)(1H-indazol-6-yl)]-2-morpholin-4-ylpyrimidin-4-yl}amine]
pIC50 (Homo sapiens, Fibroblast): 6.00 to 6.30

Cc1c(C)n(C)c2cc(Nc3cc(-c4ccc5c(CCN6CCOCC6)nn(C)c5c4)nc(N4CCOCC4)n3)ccc12 [{6-[1-methyl-3-(2-morpholin-4-ylethyl)(1H-indazol-6-yl)]-2-morpholin-4-ylpyrimidin-4-yl}(1,2,3-trimethylindol-6-yl)amine]
pIC50 (Homo sapiens, Fibroblast): 6.00 to 6.30

Cc1nn(C)c2cc(-c3cc(Nc4ccc(-c5c[nH]cn5)cc4)nc(N4CCOCC4)n3)ccc12 [[6-(1,3-dimethyl(1H-indazol-6-yl))-2-morpholin-4-ylpyrimidin-4-yl](4-imidazol-4-ylphenyl)amine]
pIC50 (Homo sapiens, Fibroblast): 5.30 to 6.00

Cn1ncc2ccc(-c3cc(Nc4ccc5cc[nH]c5c4)nc(N4CCOCC4)n3)cc21 [indol-6-yl[6-(1-methyl(1H-indazol-6-yl))-2-morpholin-4-ylpyrimidin-4-yl]amine]
pIC50 (Homo sapiens, Fibroblast): 5.30 to 6.00

Cn1ncc2ccc(-c3cc(Nc4ccc(-c5[nH]ncc5F)cc4)nc(N4CCOCC4)n3)cc21 [[4-(4-fluoropyrazol-5-yl)phenyl][6-(1-methyl(1H-indazol-6-yl))-2-morpholin-4-ylpyrimidin-4-yl]amine]
pIC50 (Homo sapiens, Fibroblast): 5.30 to 6.00

CN(C)CCc1nn(C)c2cc(-c3cc(Nc4ccc(Cl)cc4)nc(N4CCOCC4)n3)ccc12 [[2-(6-{6-[(4-chlorophenyl)amino]-2-morpholin-4-ylpyrimidin-4-yl}-1-methyl(1H-indazol-3-yl))ethyl]dimethylamine]
pIC50 (Homo sapiens, Fibroblast): 6.00 to 6.30

Cn1nc(NCCCN2CCOCC2)c2ccc(-c3cc(Nc4ccc(Cl)cc4)nc(N4CCOCC4)n3)cc21 [(4-chlorophenyl)(6-{1-methyl-3-[(3-morpholin-4-ylpropyl)amino](1H-indazol-6-yl)}-2-morpholin-4-ylpyrimidin-4-yl)amine]
pIC50 (Homo sapiens, Fibroblast): 6.00 to 6.30

Cc1nn(CCCN2CCOCC2)c2cc(-c3cc(Nc4ccc(Cl)cc4)nc(N4CCOCC4)n3)ccc12 [(4-chlorophenyl){6-[3-methyl-1-(3-morpholin-4-ylpropyl)(1H-indazol-6-yl)]-2-morpholin-4-ylpyrimidin-4-yl}amine]
pIC50 (Homo sapiens, Fibroblast): 5.30 to 6.00

COCCNc1nc2ccc(-c3cc(Nc4ccc(Cl)cc4)nc(N4CCOCC4)n3)cc2n1C [(4-chlorophenyl)(6-{2-[(2-methoxyethyl)amino]-1-methylbenzimidazol-6-yl}-2-morpholin-4-ylpyrimidin-4-yl)amine]
pIC50 (Homo sapiens, Fibroblast): 6.00 to 6.30

Cn1ccc2ccc(Nc3cc(-c4ccc5nc(CCN6CCOCC6)n(CC6CC6)c5c4)nc(N4CCOCC4)n3)cc21 [{6-[1-(cyclopropylmethyl)-2-(2-morpholin-4-ylethyl)benzimidazol-6-yl]-2-morpholin-4-ylpyrimidin-4-yl}(1-methylindol-6-yl)amine]
pIC50 (Homo sapiens, Fibroblast): > 6.30

Cn1nc(CCCCO)c2ccc(-c3cc(Nc4ccc(Cl)cc4)nc(N4CCOCC4)n3)cc21 [4-(6-{6-[(4-chlorophenyl)amino]-2-morpholin-4-ylpyrimidin-4-yl}-1-methyl-1H-indazol-3-yl)butan-1-ol]
pIC50 (Homo sapiens, Fibroblast): 5.30 to 6.00

Clc1ccc(Nc2cc(-c3ccc4cnn(CCN5CCOCC5)c4c3)nc(N3CCOCC3)n2)cc1 [(4-chlorophenyl){2-morpholin-4-yl-6-[1-(2-morpholin-4-ylethyl)(1H-indazol-6-yl)]pyrimidin-4-yl}amine]
pIC50 (Homo sapiens, Fibroblast): 6.00 to 6.30
